Here are results for ten compounds from patent US12390473B2, “Methods of treating tyrosine kinase inhibitor-induced diarrhea” (THE REGENTS OF THE UNIVERSITY OF CALIFORNIA, priority 2019, dated 2025).

For data set [1], the system named is T84 human colonic epithelial cells. Kind of data set: Short-circuit current in T84 cell monolayers, identical apical and basolateral solutions. The class given is cell-based. The settings on record: for effect on residual afatinib-induced carbachol response in BAPTA-treated cells: 10 μM inhibitor; for effect on residual afatinib-induced carbachol response in BAPTA-treated cells / short-circuit current, TKI alone: 20 μM afatinib; for effect on carbachol and forskolin induced current responses, without and with afatinib pretreatment: 30 μM clotrimazole, 10 μM senicapoc, 30 min prior to 100 μM carbachol then 10 μM forskolin; for effect of higher concentrations on the small residual current: data not shown; for short-circuit current, TKI alone: 40 μM lapatinib, 20 μM gefitinib, before carbachol. As for the experimental part:
T84 cells (ATCC CCL-248) are cultured in a 1:1 mixture of DMEM/Ham's F-12 medium supplemented with 10% FBS, 100 U/mL penicillin and 100 μg/mL streptomycin. Cells are grown on Snapwell inserts (Costar Corning, Horseheads, NY) at 37° C. in 5% CO2/95% air and used 7-10 days after plating.
T84 cells are mounted in Ussing chambers and bathed in symmetrical HCO3-buffered solution containing (in mM): 120 NaCl, 5 KCl, 1 MgCl2, 1 CaCl2, 10 D-glucose, 5 HEPES and 25 NaHCO3 (pH 7.4). The solutions are aerated with 95% O2/5% CO2 and maintained at 37° C. For measurement of basolateral K^+ conductance, a mucosal-to-serosal K^+ gradient is established using solutions containing K^+ as the major charge-carrying ion. The apical solution contained (in mM): 142.5 K-gluconate, 1.25 CaCl2, 0.40 MgSO4, 0.43 KH2PO4, 0.35 Na2HPO4, 10 HEPES, 5.6 D-glucose, pH 7.4. […] For measurement of apical Cl^− conductance, a basolateral to apical Cl^− gradient is applied. The basolateral solution contained (in mM): 120 NaCl, 1 MgCl2, 1 CaCl2, 10 D-glucose, 5 HEPES and 25 NaHCO3 (pH 7.4). In the apical solution 120 mM NaCl is replaced by 5 mM NaCl and 115 mM Na-gluconate, and the basolateral membrane is permeabilized with 250 μg/ml amphotericin B (Pongkorpsakol P, Pathomthongtaweechai N, Srimanote P, Soodvilai S, Chatsudthipong V, and Muanprasat C. Inhibition of cAMP-activated intestinal chloride secretion by diclofenac: cellular mechanism and potential application in cholera. PLoS Negl Trop Dis. 2014; 8(9):e3119). Short-circuit current is measured using an EVC4000 multichannel voltage clamp (World Precision Instruments, Sarasota, FL). For intestinal short-circuit current measurement, CD1 mice are anesthetized with isoflurane. The ileum is removed, washed with ice-cold Krebs buffer, opened along the mesenteric border, and full-thickness layer is mounted in a micro-Ussing chamber (area 0.7 cm2, World Precision Instruments, Sarasota, FL). Hemichambers are filled with oxygenated Krebs-bicarbonate solution.
The effect of ErbB TKIs lapatinib, gefitinib, and afatinib on Cl^− secretory responses in T84 human colonic epithelial cells is tested. Short-circuit current is measured in T84 cell monolayers with identical solutions bathing the apical and basolateral surfaces.

For data set [2], the target named is T1, apical membrane CFTR Cl- channels (Homo sapiens, UniProt P13569).
T1 construct: endogenous in cells; host or cells: T84 (ATCC CCL-248)
Kind of data set: Apical Cl- conductance: short-circuit current in basolaterally permeabilized T84 cells with Cl- gradient. In kind it is cell-based. As to conditions: basolateral membrane permeabilized, 10 μM BPO-27.

Another data set deals with Sprague-Dawley rats. Kind of data set: Rat model of afatinib diarrhea (stool water content, intestinal histology). In kind it is in vivo. As to conditions: for inhibition of the increase in stool water content: days 3 and 4; for reduction of the increased stool water content with afatinib: senicapoc 30 mg/kg oral twice daily. Here is the method:
Female Sprague-Dawley rats (age 8-10 weeks) received oral afatinib (60 mg/kg oral) daily for 6 days. […] Rats are placed individually in metabolic cages and given access to water and food. Stool samples are collected for 5 hours. To measure stool water content, the stool samples are dried at 70° C. for 24 hours and water content is calculated as (wet weight−dry weight)/wet weight. Following initial dose-finding studies in mice and rats with several TKIs, using stool water content (from wet and dry weight measurement) as endpoint, a robust, short-term experimental animal model of afatinib diarrhea is established involving daily oral administration of 60 mg/kg afatinib in rats.

The subject of data set [3] is basolateral membrane K+ channel(s). Kind of data set: Basolateral K+ conductance: short-circuit current in apically permeabilized T84 cells with K+ gradient. In kind it is cell-based, human. As to conditions: apical membrane permeabilized.
Method: (§1) T84 cells are mounted in Ussing chambers and bathed in symmetrical HCO3-buffered solution containing (in mM): 120 NaCl, 5 KCl, 1 MgCl2, 1 CaCl2, 10 D-glucose, 5 HEPES and 25 NaHCO3 (pH 7.4). The solutions are aerated with 95% O2/5% CO2 and maintained at 37° C. For measurement of basolateral K^+ conductance, a mucosal-to-serosal K^+ gradient is established using solutions containing K^+ as the major charge-carrying ion. The apical solution contained (in mM): 142.5 K-gluconate, 1.25 CaCl2, 0.40 MgSO4, 0.43 KH2PO4, 0.35 Na2HPO4, 10 HEPES, 5.6 D-glucose, pH 7.4. […] Short-circuit current is measured using an EVC4000 multichannel voltage clamp (World Precision Instruments, Sarasota, FL).
To measure basolateral membrane K^+ conductance directly, short-circuit current is measured in T84 cells following permeabilization of the apical membrane with amphotericin B in Cl^− and Na^+ free solutions and an apical-to-basolateral K^+ gradient (FIG. 7A).
Data set [4] addresses epithelial Ca2+-activated K+ channels (Homo sapiens, UniProt O15554). The settings on record: reported; cited from earlier work.
Data set [5] deals with cAMP-activated K+ channels. Kind of data set: Inhibition of forskolin-induced short-circuit current in T84 cells (FIG. 11B). As to conditions: 10 μM forskolin. In kind it is cell-based, human.
Method: as §1
[6] abbreviates: 30 μM BAPTA-AM, 100 μM carbachol.
The mark [7] stands for this setting: afatinib-treated rats, BPO-27 10 mg/kg ip twice daily, clotrimazole 100 mg/kg oral in two divided doses.

Sequence of epithelial Ca2+-activated K+ channels (O15554 whole entry): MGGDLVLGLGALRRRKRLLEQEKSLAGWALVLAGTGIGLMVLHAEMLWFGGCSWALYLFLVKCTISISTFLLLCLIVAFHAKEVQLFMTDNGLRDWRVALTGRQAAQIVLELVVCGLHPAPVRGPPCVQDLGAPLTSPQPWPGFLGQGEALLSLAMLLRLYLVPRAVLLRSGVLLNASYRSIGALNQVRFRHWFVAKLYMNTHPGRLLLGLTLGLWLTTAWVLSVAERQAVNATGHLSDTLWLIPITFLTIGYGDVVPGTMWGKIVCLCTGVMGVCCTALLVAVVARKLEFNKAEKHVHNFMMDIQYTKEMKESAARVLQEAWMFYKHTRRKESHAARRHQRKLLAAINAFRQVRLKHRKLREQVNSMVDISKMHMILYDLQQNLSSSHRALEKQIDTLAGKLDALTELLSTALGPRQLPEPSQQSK
T1 sequence (P13569 whole entry): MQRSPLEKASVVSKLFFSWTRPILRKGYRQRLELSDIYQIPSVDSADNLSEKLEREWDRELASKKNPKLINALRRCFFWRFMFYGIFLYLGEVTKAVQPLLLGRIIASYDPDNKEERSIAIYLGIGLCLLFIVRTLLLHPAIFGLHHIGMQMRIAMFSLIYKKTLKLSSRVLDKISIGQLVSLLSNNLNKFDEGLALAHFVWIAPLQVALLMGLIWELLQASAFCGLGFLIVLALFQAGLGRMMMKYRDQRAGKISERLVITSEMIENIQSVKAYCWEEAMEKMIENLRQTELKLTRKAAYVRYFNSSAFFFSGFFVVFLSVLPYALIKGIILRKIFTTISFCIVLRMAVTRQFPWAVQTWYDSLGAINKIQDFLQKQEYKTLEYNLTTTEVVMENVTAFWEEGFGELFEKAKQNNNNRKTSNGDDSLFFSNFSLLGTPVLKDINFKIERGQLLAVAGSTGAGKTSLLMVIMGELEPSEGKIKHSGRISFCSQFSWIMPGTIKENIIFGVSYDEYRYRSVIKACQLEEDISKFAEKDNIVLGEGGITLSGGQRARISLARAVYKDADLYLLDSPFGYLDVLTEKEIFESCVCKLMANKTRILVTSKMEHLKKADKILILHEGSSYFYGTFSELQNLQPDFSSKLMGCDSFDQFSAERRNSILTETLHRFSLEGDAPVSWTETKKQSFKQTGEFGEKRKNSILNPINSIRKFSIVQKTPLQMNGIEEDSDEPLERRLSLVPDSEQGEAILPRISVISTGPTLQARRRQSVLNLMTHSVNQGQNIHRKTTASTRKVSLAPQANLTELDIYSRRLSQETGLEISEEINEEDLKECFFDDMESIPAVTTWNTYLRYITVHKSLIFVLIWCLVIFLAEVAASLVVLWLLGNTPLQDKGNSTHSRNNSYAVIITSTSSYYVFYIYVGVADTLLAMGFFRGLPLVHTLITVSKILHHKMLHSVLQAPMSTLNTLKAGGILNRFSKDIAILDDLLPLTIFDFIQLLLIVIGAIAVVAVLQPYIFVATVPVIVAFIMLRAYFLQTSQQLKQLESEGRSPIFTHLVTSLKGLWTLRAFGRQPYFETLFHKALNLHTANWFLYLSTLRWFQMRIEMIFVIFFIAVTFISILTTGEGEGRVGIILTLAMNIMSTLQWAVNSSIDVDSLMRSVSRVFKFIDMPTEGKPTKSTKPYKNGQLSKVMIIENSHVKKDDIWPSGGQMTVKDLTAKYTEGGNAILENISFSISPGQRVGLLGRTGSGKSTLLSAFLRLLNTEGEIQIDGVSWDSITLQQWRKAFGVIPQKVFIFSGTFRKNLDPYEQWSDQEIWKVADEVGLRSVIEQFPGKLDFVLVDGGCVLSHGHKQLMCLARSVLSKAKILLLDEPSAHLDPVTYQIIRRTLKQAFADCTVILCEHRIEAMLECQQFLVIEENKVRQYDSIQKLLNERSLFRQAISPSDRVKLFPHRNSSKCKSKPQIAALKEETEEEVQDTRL

`CC(=O)OCOC(=O)CN(CC(=O)OCOC(C)=O)c1ccccc1OCCOc1ccccc1N(CC(=O)OCOC(C)=O)CC(=O)OCOC(C)=O` [BAPTA-AM]: the “effect on carbachol response” value in data set [1] (setting [6]) is on record as “largely prevents the carbachol response”.

Consider `Cn1c(=O)c2c(-c3ccccc3)n3c(c2n(C)c1=O)[C@H](c1ccc(Br)o1)Oc1ccc(C(=O)O)cc1-3` [BPO-27], for which, in data set [2], the “effect on afatinib-amplified carbachol response (apical Cl- conductance)” value is “blocked”. Further, the “effect on afatinib augmentation of carbachol-induced current” value in data set [1] (10 μM BPO-27, 20 μM afatinib, 100 μM carbachol) is recorded as “blocks the afatinib augmentation”. Moreover, in data set [1] (10 μM BPO-27, 100 μM carbachol), the “effect on carbachol-induced current without afatinib” value was “little effect”. Also, the “effect on residual afatinib-induced carbachol response in BAPTA-treated cells” value in data set [1] (setting [6]) is on record as “blocked”. In the data set with Sprague-Dawley rats (afatinib-treated rats, BPO-27 10 mg/kg ip twice daily from 1 day after first afatinib dose), the “inhibition of the increase in stool water content” value was roughly 50%. Moreover, the “reduction of the increased stool water content with afatinib” value with Sprague-Dawley rats (setting [7]) is listed as “significant reduction”. In addition, in the data set with Sprague-Dawley rats (afatinib-treated rats, BPO-27 10 mg/kg ip twice daily, day 5), the “inhibitor effect on stool water content by day 5” value is given as “reduced inhibitor effect”.

On to `O=C(O)c1ccc(/C=C2\SC(=S)N(c3cccc(C(F)(F)F)c3)C2=O)cc1` [CFTRinh-172], for which the “effect on residual afatinib-induced carbachol response in BAPTA-treated cells” value in data set [1] (setting [6]) is on record as “blocked”.

Turning to `CCn1c(=O)[nH]c2ccccc21` [EBIO], in data set [1] (EBIO 500 μM and/or afatinib 20 μM, 25 min prior to 100 μM carbachol then 10 μM forskolin), the “effect of pretreatment on carbachol and forskolin current responses” value was “amplifies the carbachol and forskolin current responses”.

Turning to `CN(C)C/C=C/C(=O)Nc1cc2c(Nc3ccc(F)c(Cl)c3)ncnc2cc1O[C@H]1CCOC1` [afatinib], the EC50 (as a rule, the concentration at which the effect is half-maximal) in data set [1] (Homo sapiens, added 25 min prior to carbachol, read-out: EC50 of amplification of carbachol-induced short-circuit current) is roughly 5 µM. Also, the “increase in carbachol response (basolateral K+ conductance) after pretreatment” value in data set [3] (20 μM afatinib, 100 μM carbachol) is given as roughly 2 fold. Besides, the intestinal histology result with Sprague-Dawley rats (rats, 60 mg/kg afatinib oral daily) was “relatively minor pathology up to day 4, but greater epithelial disruption after that”. This compound gave a stool water content in the data set on Sprague-Dawley rats (rats, 60 mg/kg afatinib oral daily, days 4-5, baseline ~60%) greater than 80%. Also, the “intestinal histology (H&E) by day 6” value in the data set on Sprague-Dawley rats (rats, 60 mg/kg afatinib oral, day 6) is “scattered epithelial disruption is seen in jejunum (black arrowheads) and villus atrophy in ileum”. Moreover, the “intestinal histology (H&E) up to day 4” value in the data set with Sprague-Dawley rats (rats, 60 mg/kg afatinib oral, up to day 4) is “minor injury up to day 4 with villus blunting in ileum”.

For the compound `Clc1ccccc1C(c1ccccc1)(c1ccccc1)n1ccnc1` [clotrimazole], in data set [1], the “effect on carbachol and forskolin induced current responses, without and with afatinib pretreatment” value was “largely prevents”; the “effect of higher concentrations on the small residual current” value is “does not inhibit the residual current”. In addition, the “effect on afatinib-amplified carbachol response (basolateral K+ conductance)” value in data set [3] (afatinib pretreatment, carbachol) is “largely blocked”. For the same compound, in data set [4], the “inhibition of epithelial Ca2+-activated K+ channels in patch-clamp studies” value is “fully inhibit”. The “reduction of the increased stool water content with afatinib” value in the data set on Sprague-Dawley rats (setting [7]) was “significantly reduced”. Besides, in the data set on Sprague-Dawley rats (afatinib-treated rats, clotrimazole 100 mg/kg oral in two divided doses), the “inhibition of the increase in stool water content” value is reported as roughly 75%.

For `COc1cc2ncnc(Nc3ccc(F)c(Cl)c3)c2cc1OCCCN1CCOCC1` [gefitinib], the “short-circuit current, TKI alone” value in data set [1] was “do not increase short-circuit current”.

`CS(=O)(=O)CCNCc1ccc(-c2ccc3ncnc(Nc4ccc(OCc5cccc(F)c5)c(Cl)c4)c3c2)o1` [lapatinib]: in data set [1], the “short-circuit current, TKI alone” value is “do not increase short-circuit current”.

On to `NC(=O)C(c1ccccc1)(c1ccc(F)cc1)c1ccc(F)cc1` [senicapoc], for which, in data set [1], the “effect on carbachol and forskolin induced current responses, without and with afatinib pretreatment” value is “largely prevents”; the “effect of higher concentrations on the small residual current” value was “does not inhibit the residual current”. The “reduction of the increased stool water content with afatinib” value in the data set on Sprague-Dawley rats (setting [7]) was “Significant, though lesser reduction”. The “IC50 for inhibition of cAMP-dependent basolateral K+ conductance” value in data set [5] was “low micromolar”.

“EGF: Epidermal growth factor (NSDSECPLSHDGYCLHDGVCMYIEALDKYACNCVVGYIGERCQYRDLKWWELR; UniProt P01133 971-1023, looked up)”: the “effect on Cl- secretion in response to carbachol” value in data set [1] (100 ng/ml EGF 25 min prior to 100 μM carbachol) is given as “greatly reduces”.
